Data reported in patent US4176189A, “Insecticidal and acaricidal hydantoin N-methylol esters” (Sumitomo Chemical Company, Limited, priority 1977, dated 1979).
Read-outs that look alike come from different tables or passages of the source.

What was measured:
Assay type in all cases: in vivo
[1] = system: northern house mosquito female adults (Culex pipiens pallens); experiment: Oil spray in (70 cm)^3 glass chamber, northern house mosquito female adults, KT50 and mortality (Experimental Example 2); settings: for mortality at 0.1 %: Culex pipiens
Protocol: (§1) 0.1 Part of each of the present compounds was dissolved in kerosene and made up to 100 parts with kerosene. Thus, the oil spray of each compound was obtained. Ten northern house mosquito female adults (Culex pipiens pallens) and 10 housefly adults (Musca domestica) were liberated in a (70 cm)^3 glass chamber. 0.7 ml of the oil spray was applied and the number of knocked down insects was counted with the lapse of time. The value of KT50 was obtained from the mean knock-down ratio of three replications according to Finney's graphic method. After 10 minutes, the knocked down insects were collected and transferred to a recovery container and fed with a 5% sugar solution. After 24 hours, the dead and alive were examined.

[2] = system: housefly female adults (Musca domestica); experiment: Housefly female adults on treated filter paper in polyethylene cup, mortality after 48 hours (Experimental Example 1)
Protocol: Ten percent emulsifiable concentrates were prepared as in the Preparation example 3.
At the bottom of a polyethylene cup of 5.5 cm in diameter was placed a filter paper of the same size. 0.75 Ml of a 200-fold aqueous dilute solution of each emulsifiable concentrate (corresponding to 500 ppm) was dropped on the filter paper, and 30 mg of sucrose as a food was uniformly placed. Ten housefly female adults (Musca domestica) were liberated in the cup which was then covered with a lid. After 48 hours, the dead and alive were examined to obtain mortality (4 replications).

[3] = system: housefly adults (Musca domestica); experiment: Oil spray in (70 cm)^3 glass chamber, housefly adults, KT50 and mortality (Experimental Example 2); settings: for mortality at 0.1 %: Musca domestica
Protocol: as §1

[4] = system: Carmine mite (Tetranychus cinnabarinus); experiment: Carmine mite on potted kidney bean, damage after 10 days (Experimental Example 12); settings: 200-fold aqueous dilution of emulsifiable concentrate of Preparation example 3, 10 ml/pot
Protocol: Carmine mite female adults (Tetranychus cinnabarinus) were made parasitic on leaves of the potted kidney bean (primordial leaf stage) which had elapsed 9 days after sowing, at a rate of 10-15/leaf, and bred at 27° C. for a week in a constant temperature room. […] At this time, a 200-fold aqueous dilute solution of each of the emulsifiable concentrates formulated from the present compounds (2), (6), (8), (9) and (13) according to Preparation example 3 was sprayed at a rate of 10 ml/pot by means of a turn table.

[5] = system: northern house mosquito female adults (Culex pipiens pallens); experiment: Oil spray in (70 cm)^3 glass chamber, knock down of mosquitoes at 10 minutes (Experimental Example 3); settings: oil sprays of Preparation example 1 (0.2 part in 100), 0.7 ml, 10 minutes after spraying, read-out: KD%
Excerpt: Ten northern house mosquito female adults (Culex pipiens pallens) were liberated in a (70 cm)^3 glass chamber.

[6] = system: adult German cockroaches (Blattella germanica); experiment: Flushing out of German cockroaches from shelter (Experimental Example 8); settings: 0.7 ml of 0.1% oil spray
Protocol: Ten adult German cockroaches (Blattella germanica) were liberated in a plywood-made trigonal prism like shelter with diet and water. The shelter containing cockroaches was made stand opening upward in a glass chamber (70 cm)^3, and 0.7 ml of 0.1% oil spray of each compound was applied to the chamber. The number of flushed out insects was counted with the lapse of time.

[7] = northern house mosquito female adult, 0.1% oil spray, 0.7 ml
[8] = housefly adult, 0.1% oil spray, 0.7 ml
[9] = 200-fold aqueous dilution of emulsifiable concentrate (500 ppm), 48 hours, housefly female adults, read-out: Mortality

SMILES | mortality at 0.1 % ([1]; 24 h) [%] | KT50 [1, 7] [s] | mortality at 500 µg/mL ([2]; 48 h) [%] | mortality at 0.1 % ([3]; 24 h) [%] | KT50 [3, 8] [s] | damage of kidney bean by the mites [4] | pest or weed control at 0.2 % [5] [%] | Flushing out ([6]; 38") [%] | Flushing out ([6]; 75") [%] | Flushing out ([6]; 150") [%] | Flushing out ([6]; 300") [%] | Flushing out ([6]; 600") [%] | mortality at 0.1 % ([1]; northern house mosquito female adult, 0.1% oil spray, 0.7 ml, after 24 hours, read-out: Mortality) [%] | mortality at 500 µg/mL [2, 9] [%] | mortality at 0.1 % ([3]; housefly adult, 0.1% oil spray, 0.7 ml, after 24 hours, read-out: Mortality) [%]
C#CCN1CC(=O)N(COC(=O)[C@@H]2[C@@H](C=C3CCCC3)C2(C)C)C1=O (relative stereo) [Present compound (8), 1-Propargyl-3-hydantoinylmethyl 2,2-dimethyl-3-cyclopentylidenemethylcyclopropanecarboxylate] | 95 | 75 | 100 | 25 | 150 | hardly any damage was observed | – | – | – | – | – | – | – | – | –
C=CCN1CC(=O)N(COC(=O)C2C(C=C(Cl)Cl)C2(C)C)C1=O (stereo not shown) [Present compound (2), 1-Allyl-3-hydantoinylmethyl 2,2-dimethyl-3-(2,2-dichlorovinyl)-cyclopropanecarboxylate] | – | – | 100 | – | – | hardly any damage was observed | 100 | – | – | – | – | – | – | – | –
C#CCN1CC(=O)N(COC(=O)[C@@H]2[C@@H](C=C(F)F)C2(C)C)C1=O [Present compound (6)] | 100 | 19 | 100 | 70 | 46 | hardly any damage was observed | – | 47 | 74 | 79 | 79 | 100 | – | – | –
C#CCN1CC(=O)N(COC(=O)C2C(C)(C)C2(C)C)C1=O [Present compound (9), 1-Propargyl-3-hydantoinylmethyl 2,2,3,3-tetramethylcyclopropanecarboxylate] | – | 35 | – | – | 150 | hardly any damage was observed | – | 15 | 55 | 60 | 70 | 80 | 95 | 100 | 20
C#CCN1CC(=O)N(COC(=O)C(c2ccc(Cl)cc2)C(C)C)C1=O (stereo not drawn) [Present compound (13), 1-Propargyl-3-hydantoinylmethyl α-(4-chlorophenyl)isovalerate] | – | – | – | – | – | hardly any damage was observed | 90 | – | – | – | – | – | – | 100 | –
